Among the data in paper PMC12040169 (PLOS Biology, 2025) are viability values, retold here.

The nature of one series: in vitro. The conditions noted are these: human, hela cells, % viability.
For the molecule `CCOC(=O)CN1CCN(c2cc(C#N)ccn2)CC1` [CBK306006], the viability at 28.5 h, 10 µM amounted to 89.3%. On the same count and under the same terms, to `Cc1cnn(CCNc2cc(C(C)C)nc3ccnn23)c1` [CBK306792] belongs 91.5%. Still for that read-out and setting: with `CCn1c(C)cc(C(=O)N2CCN(c3nccc(OC)n3)CC2)c1C` [CBK305791] the figure was 95.5%; with `CC(=O)Nc1cccc(CN(CCCO)C2CCc3ccccc32)c1` (stereo not shown) [CBK304011], 95%; with `Cc1ccc2c(c1)C(NC(=O)N(C)C1CCS(=O)(=O)CC1)CC(C)(C)O2` (stereo not shown) [CBK307654], 108%. Take `Cc1ccc(S(=O)(=O)NC2c3cccc4cccc(c34)C2Sc2nnnn2-c2ccccc2)cc1` (stereo not shown) [CBK265884]: the viability at 28.5 h, 10 µM came out at 93.1%. On the same count and under the same terms, to `O=C(c1ccc2ccccc2n1)N1CCc2ccccc21` [CBK200404] belongs 94%.

As to `Cc1cc(C[C@@H]2COC[C@H]2NCc2ccccc2C(F)(F)F)on1` [CBK285464], the viability at 28.5 h, 10 µM is 100%.

As to `CCC(CC)C(=O)N1c2ccccc2C(C)(c2ccccc2)CC1(C)C` (stereo not shown) [CBK073862], the viability at 28.5 h, 10 µM is 91.5%.

With `O=C(NC1CCOCC1)c1n[nH]c2c1CCC2` [CBK174626], the viability at 28.5 h, 10 µM amounted to 113%. The same measure, in the same setting: with `COc1ccc(-n2nc(N)c3c(=O)oc(N(C)C)nc32)cc1` [CBK007445] the figure was 89.9%; with `CC(C)Oc1cc(NC(=O)CS(=O)(=O)CC(=O)N(C)C)c(Cl)cc1Cl` [CBK018112], 113%.

Take `COC1CCN(S(=O)(=O)c2cc(-n3cccn3)ccc2C)C1` (stereo not shown) [CBK306757]: the viability at 28.5 h, 10 µM is 92.8%. On the same count and under the same terms, with `N#Cc1cc(Cl)ccc1CN1CCCCC1c1[nH]ncc1C(N)=O` (stereo not shown) [CBK304746] the figure was 88.5%; with `COc1ccc(C(=O)N[C@H]2CCN3C(=O)c4ccc(Cl)cc4NC(=O)[C@@H]3C2)cc1` [CBK289564], 84.5%. On to `CCP(CC)c1ccc(C(=O)O)cc1` [CBK019342B], for which the viability at 28.5 h, 10 µM amounted to 91.1%. The same measure, in the same setting: with `N#CC(N)c1c(Cl)cccc1Cl` (stereo not shown) [CBK008288C] the figure was 103%; with `O=C(N[C@H]1CO[C@H]2[C@@H]1OC[C@@H]2n1cc(-c2ccccc2)nn1)N1CCOCC1` [CBK289503], 87.7%; with `Cc1c(-n2nnnc2SC(C)c2ccccc2)c(=O)n(-c2ccccc2)n1C` (stereo not shown) [CBK295651], 92.9%. Still for that read-out and setting: with `CC(C(=O)O)c1cc(C(=O)c2ccccc2)sc1-c1ccccc1` (stereo not shown) [CBK260968] the figure was 91.3%; with `Cc1ccc(-c2ccc(/C=C(\C#N)c3nc(-c4ccco4)cs3)o2)c([N+](=O)[O-])c1` [CBK266685], 96%; with `O=C(C1COc2ccccc2O1)N1CCC(Cn2cncn2)(C2CCCCC2)CC1` (stereo not shown) [CBK136792], 102%. On the same count and under the same terms, with `O=C1/C(=N\Nc2ccc([N+](=O)[O-])cc2[N+](=O)[O-])c2ccccc2N1CN1CCCCC1` [CBK260926] the figure was 94.4%; with `COC(=O)c1cn([C@H]2CO[C@H]3[C@@H]2OC[C@@H]3NS(=O)(=O)Cc2ccccc2)nn1` [CBK289498], 86.9%; with `CC(=O)N1CCc2sccc2C1c1ccc(NC(=O)c2ccc(F)cc2)cc1` (stereo not shown) [CBK286434], 89%.

Regarding `Nc1c(C(=O)NCc2ccccc2)c2nc3ccccc3nc2n1CCO` [CBK267201], the viability at 28.5 h, 10 µM came out at 108%. On the same count and under the same terms, with `Cc1c(-c2cccc(Cl)c2)nc2ccccc2c1C(=O)NCCc1ccc(S(N)(=O)=O)cc1` [CBK267784] the figure was 96%; with `Cn1nc(C(=O)Nc2ccccc2Oc2ccc(F)cc2)ccc1=O` [CBK281430], 91%; with `Nc1nonc1-n1cc(CN2CCCCC2)nn1` [CBK307044], 97.1%. Same read-out and setting: with `N#Cc1c(Oc2cccc3cccnc23)cccc1C(F)(F)F` [CBK002728] the figure was 105%. The same measure, in the same setting: to `O=C(NC[C@H]1O[C@@H](CC(=O)N2CCN(c3ccc(F)cc3)CC2)[C@H](O)[C@@H]1O)c1ccco1` [CBK288922] belongs 95.4%; to `CSc1nc2n(n1)C(C)C1=C(CCCC1=O)N2` (stereo not shown) [CBK288169], 108%. As for `CCCCn1c(NCc2nc3ccccc3n2C)nc2ccccc21` [CBK264177], the viability at 28.5 h, 10 µM was found to be 87.2%.

For `Cn1c(=O)c(C(=O)Nc2ccccc2S(N)(=O)=O)c(O)c2ccccc21` [CBK262267], the viability at 28.5 h, 10 µM came to 85.5%.

On to `COc1cc(NC(=O)c2cc3c4c(sc3nc2N)CN(C)CC4)c(OC)c(OC)c1` [CBK269597], for which the viability at 28.5 h, 10 µM came out at 77.1%. The same measure, in the same setting: to `CC(=O)Nc1ccccc1OCc1cc(-c2ccccc2)on1` [CBK296617] belongs 99.8%; to `COc1ccc(Nc2cc(Cl)ccc2C(=O)Nc2ccncc2)cn1` [CBK107434], 96.3%. On the same count and under the same terms, to `CC(=O)Nc1ccc(NC(=O)NCC2CCCO2)c(C(F)(F)F)c1` (stereo not shown) [CBK304150] belongs 92.8%; to `COc1ccc2c(c1)CC1(CCC(NCCCC(=O)c3ccc(F)cc3)CC1)C2` (stereo not shown) [CBK016054C], 87.1%. Still for that read-out and setting: to `CN(C)C(=O)[C@H]1CC[C@]2(CC1)CNC(=O)c1ccccc1O2` [CBK284894] belongs 92.7%; to `CC(C)Oc1ccc(C(F)(F)F)cc1N` [CBK028895C], 105%. On to `O=C(Nc1ccccc1OC1CCNCC1)c1ccccc1` [CBK050238T], for which the viability at 28.5 h, 10 µM was 115%. For `Cc1cc(OCCCNCCO)ccc1Cl` [CBK262230], the viability at 28.5 h, 10 µM stood at 95.4%. Consider `Cn1nc(NC(=O)CN2CCOC2=O)c2c(N3CCOCC3)cccc21` [CBK306830], for which the viability at 28.5 h, 10 µM amounted to 102%. The same measure, in the same setting: with `COc1cccc(CN2C(=O)CC3(C2=O)C(=O)N(Cc2ccc4ccccc4n2)c2ccccc23)c1` (stereo not shown) [CBK076016] the figure was 96.2%. Same read-out and setting: to `Clc1ccc(Cl)c(-c2ccc(CNCCCN3CCOCC3)o2)c1` [CBK278190C] belongs 89.3%; to `Cc1cccnc1NC(=O)C1CCCN1S(=O)(=O)c1ccc(Cl)cc1` (stereo not shown) [CBK269914], 83.2%. `Cc1nc2ccccc2c(C)c1CC(=O)N(C)Cc1cnn(C)c1` [CBK304895]: the viability at 28.5 h, 10 µM amounted to 96.1%. The same measure, in the same setting: with `Cc1nc(CCNC(=O)N(Cc2ccsc2)C2CC2)nc2c1CCCC2` [CBK307674] the figure was 88.5%. For the molecule `COc1cccc(C2CC(=O)Nc3n[nH]cc32)c1OC` (stereo not shown) [CBK287889], the viability at 28.5 h, 10 µM turned out to be 88.1%.

As to `C[S+]([O-])CCNC(=O)c1cc2c(Cl)cccc2[nH]1` (stereo not shown) [CBK283304], the viability at 28.5 h, 10 µM was determined as 83.9%. As for `CC(=O)c1nnn(-c2cc(Cl)ccc2Cl)c1C` [CBK085973], the viability at 28.5 h, 10 µM came to 104%. In the case of `CN1C[C@]2(CC[C@@H](C(=O)N3CCCC3)CC2)Oc2ccccc2C1=O` [CBK284886], the viability at 28.5 h, 10 µM was determined as 103%. In the case of `CC(C)[C@@H]1C[C@H](C(F)(F)F)n2nc(C3CCCNC3)cc2N1` (stereo partly shown) [CBK283056], the viability at 28.5 h, 10 µM turned out to be 98.6%. The same measure, in the same setting: to `CCS(=O)(=O)N1CCC(NC(=O)NC(C)c2ccccc2Cl)CC1` (stereo not shown) [CBK242304] belongs 95.3%; to `CCCNC(=O)C[C@@H]1CCN(S(=O)(=O)c2c(C)noc2C)C[C@@H]1CC` [CBK288780], 103%. Consider `CN1CCN(c2cc(-c3cccc(CO)c3)nc3ccnn23)CC1` [CBK037099], for which the viability at 28.5 h, 10 µM amounted to 98.1%. Same read-out and setting: to `COc1ccc(S(=O)(=O)NCCNC(=O)c2cc(Br)cnc2N(C)S(C)(=O)=O)cc1` [CBK076477] belongs 110%. Same read-out and setting: to `N#Cc1cccnc1N1CCC(NC(=O)c2cccnc2)CC1` [CBK304283] belongs 103%. As for `CN1CCN(CCC(=O)N/N=C/c2ccsc2)CC1` [CBK261505], the viability at 28.5 h, 10 µM is 94.8%. On the same count and under the same terms, with `O=C(Nc1ccc2ccccc2c1)N1CCN(C(=O)C2CCCO2)CC1` (stereo not shown) [CBK044043] the figure was 96.6%; with `c1cncc(COc2ccnc(N3CCCN(CCN4CCOCC4)CC3)n2)c1` [CBK084122], 88.5%; with `Cc1cccc(N2CCN(CCCOc3ccc(F)c(F)c3)CC2)n1` [CBK025158C], 106%. The same measure, in the same setting: with `CC(=O)Nc1cccc(-c2cnc3[nH]c(=O)n([C@H](C)c4ccccc4)c3n2)c1` [CBK064188] the figure was 95.9%; with `O=S1(=O)C=C(N2CCCCCC2)CC1` [CBK025571C], 85.7%; with `COc1ccc(-c2cc3cccnc3n2CC(=O)N2CCCC2)cc1` [CBK285379], 84.3%. Same read-out and setting: with `O=C(Nc1ccccc1N1CCN(C(=O)c2ccccc2)CC1)c1cccnc1` [CBK269948] the figure was 100%; with `CN(C)S(=O)(=O)N1CCC(Cc2ccccc2)CC1` [CBK263768], 98.2%. Turning to `CC(=O)c1ccc(-c2ccc(/C=C\c3[nH]c(=O)[nH]c(=O)c3[N+](=O)[O-])o2)cc1` [CBK267038], the viability at 28.5 h, 10 µM stood at 90.7%. With `CC(C)(CNC(=O)c1ccc(=O)n(CC(=O)N2CCc3ccccc32)c1)c1ccccc1F` [CBK286020], the viability at 28.5 h, 10 µM stood at 127%. Still for that read-out and setting: to `COc1ccc([N+](=O)[O-])cc1NC(=O)Nc1ccc(Cl)c(Cl)c1` [CBK267593] belongs 99.5%; to `CC(C)(C)OC(=O)N1CCC(c2nc3ccccc3cc2N)CC1` [CBK285038], 82.6%. Same read-out and setting: with `N#Cc1c(NC(=O)CN2CCN(Cc3ccccc3)CC2)sc2c1CCCC2` [CBK267969] the figure was 99.6%; with `COc1ccc(CN2CCC[C@H]2c2nc(-c3ccc(OC)nc3)no2)c(O)c1` [CBK288898], 92%. Same read-out and setting: with `COCC1CCCN1C(=O)c1cnn2c(C)c(Cc3cccc(C#N)c3)c(C)nc12` (stereo not shown) [CBK162099] the figure was 99.6%; with `Cc1ccc(Nc2nc(N)nc(CSCCO)n2)cc1` [CBK265962], 97.1%. Consider `COc1ccc(/C=C/C(=O)O)cc1S(=O)(=O)NCc1ccccc1` [CBK287252], for which the viability at 28.5 h, 10 µM was determined as 87.9%.

The series is the same for the next values; noted with them: human, hela cells, % viability, bulk resorufin, single well.
Take `C1=C(c2ccccc2)CCNC1` [CBK012268C]: the viability at 28.5 h, 10 µM was 104%. Still for that read-out and setting: to `CN1CCN(c2ccc(C=C3C(=O)NC(=S)NC3=O)o2)CC1` [CBK264367] belongs 98.6%.
